Source: PubChem BioAssay AID330 (DTP/NCI, 2004)
Values joined by “and” are separate entries in the source; they are usually repeats but may differ in a detail not shown here. Equal values may be shown once. Inconclusive results and toxic doses are left out. Numbered stars: 1 amine (or outer) side, 2 acyl side, 3 side chain; on linkers, the order of the positions; unused ones are H or OH. Bridge positions count the residues as written; N and C are the ends. Square brackets hold non-standard residues; d marks the D form. Peptide text beside a SMILES is read from it. I, II: the chains in the order shown. Actinocin(1to9) = Cc1c2oc3c(C)ccc(C(=O)[*:2])c3nc-2c(C(=O)[*:1])c(N)c1=O; Hyp = O=C(O)[CH]1C[CH](O)CN1; NMeV = CN[CH](C(=O)O)C(C)C; Sar = CNCC(=O)O

System: P388 leukemia ip, CD2F1 mice, survival T/C
Assay: NCI In Vivo Anticancer Drug Screen. Data for tumor model P388 Leukemia (intraperitoneal) in CD2F1 (CDF1) mice
Details: endpoint: median survival time, higher = longer survival
How it was run: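 Mice carrying the transplanted tumor received test compound or vehicle. Survival was recorded in each group, and the value is the treated-group measurement divided by that of the vehicle-treated control group.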

[1] = dose: 25.0 mg/kg/injection, schedule: Q04DX003 (ip), vehicle: saline with Tween-80
[2] = dose: 50.0 mg/kg/injection, schedule: Q04DX003 (ip), vehicle: saline with Tween-80
[3] = dose: 50.0 mg/kg/injection, schedule: Q01DX009 (ip), vehicle: saline
[4] = dose: 100.0 mg/kg/injection, schedule: Q01DX009 (ip), vehicle: saline
[5] = dose: 200.0 mg/kg/injection, schedule: Q01DX009 (ip), vehicle: saline
[6] = dose: 100.0 mg/kg/injection, schedule: Q01DX009 (ip), vehicle: Klucel (hydroxypropylcellulose) (HPC)
[7] = dose: 200.0 mg/kg/injection, schedule: Q01DX009 (ip), vehicle: Klucel (hydroxypropylcellulose) (HPC)
[8] = dose: 50.0 mg/kg/injection, schedule: Q01DX005 (ip), vehicle: saline with Tween-80
[9] = dose: 100.0 mg/kg/injection, schedule: Q01DX005 (ip), vehicle: saline with Tween-80
[10] = dose: 25.0 mg/kg/injection, schedule: Q01DX009 (ip), vehicle: saline with Tween-80
[11] = dose: 50.0 mg/kg/injection, schedule: Q01DX009 (ip), vehicle: Klucel (hydroxypropylcellulose) (HPC)
[12] = dose: 60.0 mg/kg/injection, schedule: Q01DX005 (ip), vehicle: saline with Tween-80
[13] = dose: 120.0 mg/kg/injection, schedule: Q01DX005 (ip), vehicle: saline with Tween-80
[14] = dose: 240.0 mg/kg/injection, schedule: Q01DX005 (ip), vehicle: saline with Tween-80

Cc1nc2c([N+](=O)[O-])c(N3CCN(C)CC3)c([N+](=O)[O-])cc2[nH]1
T/C (dose: 12.5 mg/kg/injection, schedule: Q04DX003 (ip), vehicle: saline with Tween-80): 95 % of control | T/C [1]: 106 % of control | T/C [2]: 100 % of control and 90 % of control | T/C (dose: 100.0 mg/kg/injection, schedule: Q04DX003 (ip), vehicle: saline with Tween-80): 104 % of control

O=c1cc[nH]c2ccccc12
T/C [3]: 96 % of control | T/C [4]: 92 % of control | T/C [5]: 97 % of control

O=C(N/N=C\c1ccccc1O)c1cccc2ccccc12
T/C (dose: 50.0 mg/kg/injection, schedule: Q01DX005 (ip), vehicle: Klucel (hydroxypropylcellulose) (HPC)): 99 % of control | T/C (dose: 100.0 mg/kg/injection, schedule: Q01DX005 (ip), vehicle: Klucel (hydroxypropylcellulose) (HPC)): 99 % of control | T/C (dose: 200.0 mg/kg/injection, schedule: Q01DX005 (ip), vehicle: Klucel (hydroxypropylcellulose) (HPC)): 102 % of control

ClC(c1ccccc1)C1(Cl)C=c2ccccc2=C1 (centres undefined)
T/C [6]: 109 % of control | T/C (dose: 100.0 mg/kg/injection, schedule: Q04DX003 (ip), vehicle: Klucel (hydroxypropylcellulose) (HPC)): 100 % of control | T/C [7]: 109 % of control | T/C (dose: 200.0 mg/kg/injection, schedule: Q04DX003 (ip), vehicle: Klucel (hydroxypropylcellulose) (HPC)): 104 % of control | T/C (dose: 400.0 mg/kg/injection, schedule: Q01DX009 (ip), vehicle: Klucel (hydroxypropylcellulose) (HPC)): 113 % of control | T/C (dose: 400.0 mg/kg/injection, schedule: Q04DX003 (ip), vehicle: Klucel (hydroxypropylcellulose) (HPC)): 109 % of control

NC(COC(=O)c1ccccc1)C(=O)O (centres undefined)
T/C [8]: 100 % of control | T/C [9]: 98 % of control | T/C (dose: 200.0 mg/kg/injection, schedule: Q01DX005 (ip), vehicle: saline with Tween-80): 93 % of control

CC1(C)CC(=O)C2=C(C1)Oc1c(Cl)cc(Cl)cc1C2
T/C [3]: 108 % of control | T/C [4]: 98 % of control | T/C [5]: 92 % of control

O=C(CCSSCCC(=O)ON1C(=O)CCC1=O)ON1C(=O)CCC1=O
T/C (dose: 6.25 mg/kg/injection, schedule: Q01DX009 (ip), vehicle: saline with Tween-80): 100 % of control | T/C (dose: 12.5 mg/kg/injection, schedule: Q01DX009 (ip), vehicle: saline with Tween-80): 105 % of control | T/C [10]: 112 % of control

COC(/C=N/OC(C)=O)c1ccccc1 (centres undefined)
T/C [1]: 98 % of control and 99 % of control | T/C [2]: 102 % of control and 92 % of control

O=c1[nH][nH]c2c([N+](=O)[O-])ccc(F)c12
T/C (dose: 12.5 mg/kg/injection, schedule: Q01DX009 (ip), vehicle: Klucel (hydroxypropylcellulose) (HPC)): 100 % of control | T/C (dose: 25.0 mg/kg/injection, schedule: Q01DX009 (ip), vehicle: Klucel (hydroxypropylcellulose) (HPC)): 101 % of control | T/C [11]: 110 % of control

COc1cc([N+](=O)[O-])c(S(=O)(=O)O)cc1NS(=O)(=O)c1ccc(C)cc1
T/C [12]: 110 % of control | T/C [13]: 101 % of control | T/C [14]: 97 % of control

CC1C(c2ccccc2)OCCN1C(N)=S (centres undefined)
T/C [11]: 108 % of control | T/C [6]: 101 % of control | T/C [7]: 101 % of control

Clc1ccc(-c2noc(CN3CCOCC3)n2)cc1
T/C [3]: 102 % of control | T/C [4]: 105 % of control | T/C [5]: 109 % of control

C=C1CN(CCc2ccccc2)C(=S)S1
T/C [12]: 101 % of control | T/C [13]: 102 % of control | T/C [14]: 102 % of control

CN(C)c1ccc(/C=[N+](\C)[O-])cc1
T/C [3]: 91 % of control | T/C [4]: 98 % of control | T/C [5]: 95 % of control

CCOC(CN=Cc1cc(C)c2sc3ccccc3c2c1C)OCC
T/C [10]: 110 % of control | T/C (dose: 50.0 mg/kg/injection, schedule: Q01DX009 (ip), vehicle: saline with Tween-80): 103 % of control | T/C (dose: 100.0 mg/kg/injection, schedule: Q01DX009 (ip), vehicle: saline with Tween-80): 108 % of control | T/C (dose: 200.0 mg/kg/injection, schedule: Q01DX009 (ip), vehicle: saline with Tween-80): 111 % of control

CCCCCCCCCCCCS(=O)(=O)CCC(=O)c1ccco1
T/C (dose: 100.0 mg/kg/injection, schedule: Q04DX003 (ip), vehicle: saline): 99 % of control | T/C (dose: 200.0 mg/kg/injection, schedule: Q04DX003 (ip), vehicle: saline): 99 % of control | T/C (dose: 400.0 mg/kg/injection, schedule: Q04DX003 (ip), vehicle: saline): 97 % of control

N#C[C@H]1C[C@@H](c2ccc([N+](=O)[O-])cc2)N(c2ccc(C=O)cc2)O1
T/C (dose: 100.0 mg/kg/injection, schedule: Q01DX001 (ip), vehicle: saline with Tween-80): 98 % of control | T/C (dose: 200.0 mg/kg/injection, schedule: Q01DX001 (ip), vehicle: saline with Tween-80): 98 % of control | T/C (dose: 400.0 mg/kg/injection, schedule: Q01DX001 (ip), vehicle: saline with Tween-80): 99 % of control

Cc1cc(=O)n2c(n1)sc1cc(Cl)ccc12
T/C (dose: 18.75 mg/kg/injection, schedule: Q04DX002 (ip), vehicle: Klucel (hydroxypropylcellulose) (HPC)): 102 % of control | T/C (dose: 37.5 mg/kg/injection, schedule: Q04DX002 (ip), vehicle: Klucel (hydroxypropylcellulose) (HPC)): 93 % of control | T/C (dose: 75.0 mg/kg/injection, schedule: Q04DX002 (ip), vehicle: Klucel (hydroxypropylcellulose) (HPC)): 101 % of control

COc1ccc(-c2coc3c4c(ccc3c2=O)OCO4)cc1OC
T/C (dose: 9.75 mg/kg/injection, schedule: Q01DX005 (ip), vehicle: Klucel (hydroxypropylcellulose) (HPC)): 94 % of control | T/C (dose: 19.5 mg/kg/injection, schedule: Q01DX005 (ip), vehicle: Klucel (hydroxypropylcellulose) (HPC)): 94 % of control | T/C (dose: 39.0 mg/kg/injection, schedule: Q01DX005 (ip), vehicle: Klucel (hydroxypropylcellulose) (HPC)): 87 % of control | T/C (dose: 78.0 mg/kg/injection, schedule: Q01DX005 (ip), vehicle: Klucel (hydroxypropylcellulose) (HPC)): 86 % of control

COC(=O)[C@@H]1C(=O)[C@H](C(=O)OC)C2CCCC3CCCC1N32 (some centres undefined)
T/C [8]: 98 % of control | T/C [9]: 98 % of control

CCOC(CCl)(NC(C)=O)C(=O)OC (centres undefined)
T/C (dose: 100.0 mg/kg/injection, schedule: Q01DX001 (ip), vehicle: Klucel (hydroxypropylcellulose) (HPC)): 104 % of control | T/C (dose: 200.0 mg/kg/injection, schedule: Q01DX001 (ip), vehicle: Klucel (hydroxypropylcellulose) (HPC)): 100 % of control | T/C (dose: 400.0 mg/kg/injection, schedule: Q01DX001 (ip), vehicle: Klucel (hydroxypropylcellulose) (HPC)): 106 % of control

Cc1c2oc3c(C)ccc(C(=O)NC4C(=O)NC(C(C)C)C(=O)N5CCCC5C(=O)N(C)CC(=O)N(C)C(C(C)C)C(=O)OC4C)c3nc-2c(C(=O)NC2C(=O)NC(C(C)C)C(=O)N3CC(O)CC3C(=O)N(C)CC(=O)N(C)C(C(C)C)C(=O)OC2C)c(N)c1=O (centres undefined) (I: TV[Hyp][Sar][NMeV] / II: TVP[Sar][NMeV]; ester I:1-I:C, II:1-II:C; linker I:N-II:N via Actinocin(1to9); configuration not given here)
T/C (dose: 0.1 mg/kg/injection, schedule: Q01DX009 (ip), vehicle: Klucel (hydroxypropylcellulose) (HPC)): 221 % of control | T/C (dose: 0.2 mg/kg/injection, schedule: Q01DX009 (ip), vehicle: Klucel (hydroxypropylcellulose) (HPC)): 108 % of control | T/C (dose: 0.2 mg/kg/injection, schedule: Q01DX009 (ip), vehicle: water): 151 % of control | T/C (dose: 0.4 mg/kg/injection, schedule: Q01DX009 (ip), vehicle: water): 186 % of control

C1CCNCC1.CC(=O)[C-](C(C)=O)c1ccccc1.CC(=O)[C-](C(C)=O)c1ccccc1.CC(=O)[C-](C(C)=O)c1ccccc1.CC(=O)[C-](C(C)=O)c1ccccc1.[Eu+3]
T/C (dose: 100.0 mg/kg/injection, schedule: Q04DX002 (ip), vehicle: Klucel (hydroxypropylcellulose) (HPC)): 86 % of control | T/C (dose: 400.0 mg/kg/injection, schedule: Q04DX002 (ip), vehicle: Klucel (hydroxypropylcellulose) (HPC)): 97 % of control

N#CC(C(=O)C(=O)Nc1cccc(C(F)(F)F)c1)c1cccc(Cl)c1 (centres undefined)
T/C [12]: 105 % of control | T/C [13]: 112 % of control | T/C [14]: 103 % of control

CC(=O)C(=O)c1ccc(O)cc1O
T/C (dose: 10.0 mg/kg/injection, schedule: Q01DX009 (ip), vehicle: saline with Tween-80): 96 % of control | T/C (dose: 20.0 mg/kg/injection, schedule: Q01DX009 (ip), vehicle: saline with Tween-80): 103 % of control | T/C (dose: 40.0 mg/kg/injection, schedule: Q01DX009 (ip), vehicle: saline with Tween-80): 107 % of control
